≈ marks a conversion by molar mass, not a printed value. Where two headings read alike, the source gives them in different places.
Legend:
[1] = test system: E. faecalis isolates; test: Minimal inhibitory concentration of antibacterial agents, "Eiken" DP42 dry plate; assay type: cell-based, Enterococcus faecalis; details: for MIC: Enterococcus faecalis
Protocol: (§1) The sensitivity to an antibacterial agent for each of the above-described 30 Enterococcus bacterial strains was invenstigated. Specifically, the bacterial strains prepared in 1 McFarland standard with physiological saline were diluted 500-fold with a BHI culture medium, and then aerobically cultured in solid-phase wells of an “Eiken” DP42 dry plate (Eiken Chemical Co., Ltd., Tokyo, Japan) for 24 hours.
(§2) The minimal inhibitory concentration of any one of the antibacterial agents, i.e., daptomycin (DAP), vancomycin (VCM), teicoplanin (TEIC), and linezolid (LZD), was determined in accordance with the instruction of the product. […] The results obtained by testing resistance to the antibacterial agents of the E. faecalis strains (11 strains) are shown in Table 1 below.

[2] = test system: E. faecium isolates; test: as above; assay type: cell-based, Enterococcus faecium; details: all E. faecium (19 strains)
Protocol: as §1, §2

[3] = test system: E. faecalis strains JCM5803, JCM8902; test: Vancomycin resistance evaluation (method of Example 2 (2)); assay type: cell-based; design: key: resistant: +; nonresistant: −
Protocol: as §1, §2
(§3) The hemolytic activity of each of the bacterial strains was measured with a hemolysis assay using a Nissui Plate Horse Blood Agar medium. The cytolysin-related gene was detected with PCR. The vancomycin resistance was evaluated using the method described in (2) in Example 2. The vanA gene and the vanB gene that are vancomycin-resistant genes were detected with PCR. Furthermore, each bacterial strain was aerobically cultured in a BHI culture medium, and centrifuged at 300×g for 5 minutes for collection. The cell pellets were washed, and resuspended in a HiTrap buffer. The phage-derived endolysin was added at a final concentration of 50 μg/mL to the cell resuspension liquid. The resulting suspension was incubated at 37° C., and the lytic activity was measured, using the presence or absence of a bacterial lump as an index.

[4] = test system: E. faecium strain JCM5804; test: as above; assay type: cell-based; design: key: resistant: +; nonresistant: −
Protocol: as §1, §2, §3

Structure (SMILES): CN[C@H](CC(C)C)C(=O)N[C@H]1C(=O)N[C@@H](CC(N)=O)C(=O)N[C@H]2C(=O)N[C@H]3C(=O)N[C@H](C(=O)N[C@H](C(=O)O)c4cc(O)cc(O)c4-c4cc3ccc4O)[C@H](O)c3ccc(c(Cl)c3)Oc3cc2cc(c3O[C@@H]2O[C@H](CO)[C@@H](O)[C@H](O)[C@H]2O[C@H]2C[C@](C)(N)[C@H](O)[C@H](C)O2)Oc2ccc(cc2Cl)[C@H]1O [vancomycin]
- MIC ([1]; read-out: Minimal inhibitory concentration, E. faecalis strain OCU009_35_4): 2 µg/mL (≈ 1.38 µM)
- MIC ([1]; read-out: Minimal inhibitory concentration, E. faecalis strain OCU009_35_10): 4 µg/mL (≈ 2.76 µM)
- MIC ([1]; read-out: Minimal inhibitory concentration, E. faecalis strain OCU015_56_6): 2 µg/mL (≈ 1.38 µM)
- MIC ([1]; read-out: Minimal inhibitory concentration, E. faecalis strain OCU015_56_7): 2 µg/mL (≈ 1.38 µM)
- MIC ([1]; read-out: Minimal inhibitory concentration, E. faecalis strain OCU031_7_1): 4 µg/mL (≈ 2.76 µM)
- MIC ([1]; read-out: Minimal inhibitory concentration, E. faecalis strain OCU031_7_9): 2 µg/mL (≈ 1.38 µM)
- MIC ([1]; read-out: Minimal inhibitory concentration, E. faecalis strain OCU031_14_5): 4 µg/mL (≈ 2.76 µM)
- MIC ([1]; read-out: Minimal inhibitory concentration, E. faecalis strain OCU031_14_8): 2 µg/mL (≈ 1.38 µM)
- MIC ([1]; read-out: Minimal inhibitory concentration, E. faecalis strain OCU031_pre_6): 2 µg/mL (≈ 1.38 µM)
- MIC ([1]; read-out: Minimal inhibitory concentration, E. faecalis strain OCU031_pre_7): 2 µg/mL (≈ 1.38 µM)
- MIC ([1]; read-out: Minimal inhibitory concentration, E. faecalis strain OCU031_pre_10): 2 µg/mL (≈ 1.38 µM)
- Sensitivity of strains to antibacterial agent ([1]; all E. faecalis strains (11 strains)): exhibited sensitivity
- Sensitivity of strains to antibacterial agent [2]: exhibited sensitivity
- Vancomycin-resistance ([3]; strain JCM5803): −
- Vancomycin-resistance ([3]; strain JCM8902): +
- Vancomycin-resistance [4]: −

Reference: patent US20250290057A1, “LYTIC AGENT FOR ENTEROCOCCUS FAECALIS” (priority 2022, published 2025)
